Consider two compounds from article PMC12093266, “Synergistic action of two radical SAM enzymes in the biosynthesis of thuricin CD, a two-component sactibiotic” (Chemical Science, 2025).

The structures appear in SMILES notation. Numbered stars: 1 amine (or outer) side, 2 acyl side, 3 side chain; on linkers, the order of the positions; unused ones are H or OH. Bridge positions count the residues as written; N and C are the ends. Square brackets hold non-standard residues; d marks the D form. Peptide text beside a SMILES is read from it. X3 = O=C([C@@](Cc1ccc(O)cc1)(N[*:1])[*:3])[*:2]; X5 = C[C@@H](O)[C@@](N[*:1])(C(=O)[*:2])[*:3]; X1 = C[C@@H](O)[C@](N[*:1])(C(=O)[*:2])[*:3]; X4 = O=C([C@](CO)(N[*:1])[*:3])[*:2]; X2 = C[C@](N[*:1])(C(=O)[*:2])[*:3]

In assay [1] the test system is Bacillus cereus. The format is cell-based. To be noted: B. cereus in LB, 96-well plate, serial dilution, 30 °C, 16 h, OD600; lowest concentration with <10% OD increase over kanamycin well; HPLC-purified peptides in 30% isopropanol; '>' = no inhibition observed at that concentration. The protocol: To test whether the thuricin CD variant obtained in E. coli was bioactive, we performed disk diffusion susceptibility tests with trnα′ and trnβ′ using Bacillus cereus as a test strain. […]
the elution fraction (1: 200 (v/v) ratio), and the resulting solution was then kept overnight for digestion at 4 °C. The resulting solution was heat-inactivated at 95 °C for 10 min followed by freezing at -80 °C for 1 h, and was subjected to centrifugation (13000 × g for 15 min at 4 °C) to remove any precipitates. The resulting solutions containing TrnA or TrnB were directly used in downstream analysis or frozen at -80 °C […]
Production of trnα’ and trnβ’
The modified TrnA and TrnB solutions were mixed with GluC (2 mg/ml stock solution) in a 50:1 (v/v) ratio and the proteolytic reaction was proceeded at room temperature for 2hr. The reaction mixture was subsequently quenched by methanol, and was lyophilized after centrifugation to remove any protein precipitate. The resulting sample was then dissolved in 30% isopropanol and injected onto a reverse phase Phenomenex Aeris PEPTIDE XB-C18 column (250 x 10 mm, 5 μm). […]
as a positive and negative controls, respectively. […] The OD600 was read on a SP-Max 2300A plate reader. […]

Assay [2] has as its system Bacillus cereus. Put plainly: Disk diffusion susceptibility test. The class given is cell-based. To be noted: 5 μL of 100 μM peptide (each) on filter paper, BHI agar, 30 °C, 15-20 h. For orientation: Agar diffusion results depend on both activity and mobility in agar.
Description: In vitro susceptibility test
Briefly, the liquid Brain Heart Infusion (BHI) agar (3.2 % BHI, 1.5% agar) was cooled to 42 °C and seeded with 100 μL of dense overnight culture (approximately 10 8-109 CFU mL -1) of Bacillus cereus. […] Kanamycin and 30% isopropanol were used
Spot 4: 5 μL 0.1 mg/ml kanamycin; Spot 5: 5 μL 30% isopropanol.

For `CC[C@H](C)[C@H](N)C(=O)NCC(=O)NCC(=O)N[C@@H](CC(N)=O)C(=O)N[C@@H](C)C(=O)N[C@@H](C)C(=O)N[C@H]1CS[C@](C(=O)N[C@@H](CC(C)C)C(=O)NCC(=O)O)([C@@H](C)O)NC(=O)[C@H](Cc2ccccc2)NC(=O)[C@H](C)NC(=O)[C@]2([C@@H](C)O)NC(=O)CNC(=O)[C@H](C(C)C)NC(=O)[C@H](CC(C)C)NC(=O)[C@]3(CO)NC(=O)CNC(=O)[C@H]([C@@H](C)CC)NC(=O)CNC(=O)[C@H](CCC(=O)O)NC(=O)[C@H](CO)NC(=O)[C@H]([C@@H](C)CC)NC(=O)[C@H](C(C)C)NC(=O)[C@H](CS3)NC(=O)[C@H](CO)NC(=O)CNC(=O)[C@H]([C@@H](C)CC)NC(=O)[C@H](CS2)NC(=O)CNC(=O)[C@H]([C@@H](C)CC)NC(=O)[C@H](C(C)C)NC1=O` [trnα′] (H-IGGNAACVIGCIGSCVISEGIG[X4]LVG[X1]AF[X5]LG-OH; thioether 7-30, 11-27, 15-23; N-terminus and C-terminus assumed), the “minimal inhibition concentration (MIC)” value in the assay on Bacillus cereus [1] was greater than 50 µM. Besides, the “inhibition in disk diffusion test” value in the assay on Bacillus cereus [2] is listed as “no activity”.
The corresponding values for `CC(C)C[C@H](NC(=O)[C@H](Cc1ccccc1)NC(=O)[C@@]1(Cc2ccc(O)cc2)NC(=O)[C@H](CO)NC(=O)[C@H](C)NC(=O)[C@]2(C)NC(=O)[C@H](C)NC(=O)[C@H](Cc3ccccc3)NC(=O)[C@H](CCC(=O)O)NC(=O)[C@]3([C@@H](C)O)NC(=O)CNC(=O)[C@H](C(C)C)NC(=O)CNC(=O)CNC(=O)[C@H](CO)NC(=O)[C@H](C)NC(=O)[C@H](CC(C)C)NC(=O)[C@H](CS3)NC(=O)[C@H](C(C)C)NC(=O)[C@H]([C@@H](C)O)NC(=O)CNC(=O)[C@H](CS2)NC(=O)[C@H](C)NC(=O)CNC(=O)[C@H](C(C)C)NC(=O)[C@@H](NC(=O)[C@H](C)NC(=O)[C@@H](NC(=O)[C@H](Cc2c[nH]c3ccccc23)NC(=O)CNC(=O)CNC(=O)[C@@H](N)C(C)C)C(C)C)CS1)C(=O)O` [trnβ′] (H-VGGWVACVGACGTVCLASGGVG[X1]EFA[X2]AS[X3]FL-OH; thioether 7-30, 11-27, 15-23; N-terminus and C-terminus assumed) are greater than 50 µM and “no activity”.
